Measurements taken from patent US12024584B2, “Methods and compositions for polyurethane dispersions using caprolactam-derived solvents” (AdvanSix Resins & Chemicals LLC, priority 2017, dated 2024).
Like-named read-outs stand apart in the source and are kept apart here.

Columns and labels:
Open time (ASTM D7488) = assay type: physicochemical; conditions: ASTM D7488, 23±2° C., 50±5% RH, wet film 200 μm
Description: (§1) Tests were first performed to determine the coalescing agent level for pigmented and complete PUD formulations in order to achieve the optimum film formation. Complete paints were mixed with 0.7 wt. %, 1.5 wt. %, 3.0 wt. % and 5.0 wt. % of coalescing agents and applied on tin plated steel at a wet film thickness of around 250 μm, where the weight percentage was based on the pure polyurethane dispersion resins. […] Based on the observations, 3 wt. % dosage of coalescing agent was selected. Complete PUD formulations with pigments, fillers and other additives were prepared as per Table 5, and used to test and determine the coalescing properties of the caprolactam-derived solvents and other known coalescing agents.
Open times were determined according to the ASTM D7488 “Test Method for Open Time of Latex” standard and the tests were performed under controlled temperature and humidity (23±2° C. and 50±5% RH). In general, the paints were applied at a wet film thickness of 200 μm on contrasting sealed charts by means of a doctor blade applicator, and “X” marks are made immediately with the wide curved end of a wooden paint brush. After a determined time internal, the brush was dipped into the paint to be tested and brushing of the X-marks was started in perpendicular direction to the initial drawdown using 10 strokes back and forth to work the paint under test into the drawdown area. This procedure is repeated after several time intervals. After their complete drying (1 week), the painted panels are observed by two different observers and the time for which the “X” marks to become visible is considered as the open time.

[1] = Persoz hardness of pigmented and complete PUDs; assay type: physicochemical; conditions: pigmented
Description: as §1
Persoz hardness measurements were performed on pigmented paints that were applied on tin plated steel using a doctor blade applicator at a dry film thickness (DFT) around 50 μm according to the ISO 1522 standard. […] For instance, the 28 day hardness for N-ethyl caprolactam (NE CPL) was approximately 104.6±0.5, while the 28 day hardness for NMP was approximately 108.8±2.4, and the 28 day hardness for ester alcohol and N-methyl caprolactam (NM CPL) were approximately 124.8±1 and 126.0±1, respectively, while the 28 day hardness for NBP was approximately 135.8±5.

[2] = Color of pigmented and complete PUDs (ISO 7724-2); assay type: physicochemical
Description: as §1
(§2) Gloss measurements serve as an indicator of the paints surface quality. Gloss and color measurements were determined according to the ISO 2813 standard and the ISO 7724-2 standard (SCI-D65/10°), respectively.

[3] = Drying time (ASTM D1640 / ASTM D5895); assay type: physicochemical; conditions: 200 μm humid film; blends by ASTM D1640, single solvents by ASTM D5895
Description: as §1
The drying times for the pigmented PUD formulations were determined according to the ASTM D1640 “Standard Test Methods for Drying, Curing, or Film Formation of Organic Coatings” standard or the ASTM D5895 “Standard Test Methods for Evaluating Drying or Curing During Film Formation of Organic Coatings Using Mechanical Recorders” standard. Four stages of drying can be identified depending on the trace left by the needle on the paint surface: Stage 1—Set-to-Touch time, Stage 2—Tack-Free time, Stage 3—Dry-Hard time, and Stage IV—Dry trough time. However, Stage IV is often hard to detect.
In general, the paints were applied at a humid film thickness of 200 μm by means of a bar coater on a Leneta sheet and the needle rate was set at 60 cm/hr.
For the present examples, the drying times for the 2:1 A:B, 1:1 A:B, and 1:2 A:B solvents were determined using the ASTM D1640 standard, and the drying times for NM CPL, NE CPL, NMP, NBP, ester amide, and ester alcohol were determined using the ASTM D5895 standard.

[4] = Gloss of pigmented and complete PUDs (ISO 2813); assay type: physicochemical
Description: as §1, §2

[5] = Scrub resistance of pigmented and complete PUDs (ISO 11998); assay type: physicochemical; conditions: for Wt. Loss: 200 wet-scrub cycles; for Loss of thickness after 200 wet-scrub cycles: calculated from weight loss
Description: as §1
Scrub resistance was tested according the ISO 11998 “Paints and Varnishes—Determination of Wet-Scrub Resistance and Cleanability of Coatings” standard. In this testing method, the paint was applied on a test panel (Leneta sheet) using a film applicator at the specific gap clearance. After drying and conditioning for four weeks at room temperature the coated panel was weighed and subject to 200 wet-scrub cycles in a scrub resistance machine. The panel was then washed, dried and weighed to determine the loss from which the mean loss in film thickness was calculated. […] For instance, N-methyl caprolactam (NM CPL), N-ethyl caprolactam (NE CPL), and blends thereof in the ratios of 1:2 and 1:1, all had less loss of thickness (2.035 μm, 1.797 μm, 1.39 μm, and 1.64 μm, respectively) as compared to NMP (2.090 μm) and NBP (2.213 μm).

[6] = MFFT of pigmented and complete PUDs; assay type: physicochemical; conditions: pigmented and complete PUD, 3 wt. % coalescing agent
Description: as §1, with “agents. The standard test for determining this temperature involves using a MFFT-BAR, as specified by standards ASTM D 2354 and ISO 2115. In general, the MFFT of a paint or coating is reduced temporarily by the use of coalescing agents.” for “agents.”

[7] = Freeze and thaw stability (ASTM D2243-95); assay type: physicochemical; conditions: cycles of 16 hours at −20° C. and 8 hours at room temperature
Experimental: Water-based emulsions and dispersions are susceptible to irreversible coagulation by freezing. Freeze and thaw stability was tested according the ASTM D2243-95 standard.
For these examples, pigmented PUD paints were subject to freeze-thaw cycles of 16 hours at −20° C. and 8 hours at room temperature and subsequently subject to visible observations. The paints were then applied on a tin plated steel plate at a thickness of approximately 200 μm for observing film properties.
In addition, the freeze-thaw stability was best for caprolactam-derived coalescing agents (NM CPL) and the blends even after subject to five cycles (see FIG. 9). In particular, the paints were visually observed after each cycle to see if there was any viscosity change, i.e., thickening of the paint. Then, the dry films of the coatings were observed visually.

[8] = Solubility of DMPA in solvents
Experimental: Solubility was tested between the various solvents to determine their applicability in the PUD manufacturing processes. Solubility is the amount of a substance (coalescing agent) that dissolves in a unit volume of a liquid substance (solvent) to form a saturated solution under specified conditions of temperature and pressure. For the examples, amounts of […] (DMPA) were dissolved in each solvent.

[9] = Minimum film forming temperature, non-pigmented resin + coalescing agent; assay type: physicochemical; conditions: resin with 5 wt. % coalescing agent, film thickness 350 μm

| Compound | Open Time (Open time (ASTM D7488)) [min] | Persoz Hardness ([1]; 1 Day, in s) | Persoz Hardness ([1]; 7 Days, in s) | Persoz Hardness ([1]; 14 Days, in s) | Persoz Hardness ([1]; 21 Days, in s) | Color (Black background) L* [2] | Color (Black background) a* [2] | Color (Black background) b* [2] | Color (White background) L* [2] | Color (White background) a* [2] | Color (White background) b* [2] | Drying Time [3] [min] | Gloss 20° [4] | Gloss 60° [4] | Gloss 85° [4] | Wt. Loss [5] [g/m^2] | Loss of thickness after 200 wet-scrub cycles [5] | MFFT [6] [°C] | freeze-thaw stability: viscosity change (thickening of the paint) [7] | MFFT [9] [°C] | other results |
| --- | --- | --- | --- | --- | --- | --- | --- | --- | --- | --- | --- | --- | --- | --- | --- | --- | --- | --- | --- | --- | --- |
| 2, 2, 4-trimethyl-1,3-pentanediol monoisobutyrate [Ester alcohol, reference compound] | 10 | 98.2 ± 3 | 118.0 ± 1 | 120.0 ± 2 | 122.0 ± 2 | 94.93 | −0.87 | 2.30 | 95.6 | −0.51 | 3.16 | 13.6 | 1.3 ± 0 | 3.0 ± 0 | 19.6 ± 0.3 | 7.747 | 4.439 µm | −0.4 | thickening of the paint samples after two cycles |  | Persoz Hardness ([1]; 28 Days): approximately 124.8±1; Persoz Hardness ([1]; 28 Days, in s): 124.8 ± 1 |
| COC(=O)CCCCC(=O)N(C)C [Ester amide, Hexanoic acid, 6-(dimethylamino)-6-oxo, methyl ester] | 12 |  |  |  |  | 93.84 | −1.05 | 2.03 | 94.98 | −0.51 | 3.29 | 13.3 | 1.3 ± 0 | 3.3 ± 0 | 24.2 ± 0.2 | 7.920 | 4.040 µm | −0.6 |  |  | Solubility ([8]; DMPA dissolved in each solvent): 10.0 g/100 g of Solvent |
| CCCCN1CCCC1=O [NBP, N-butyl pyrrolidone, reference compound] | 12 | 64.4 ± 3 | 127.0 ± 2 | 133.2 ± 5 | 136.6 ± 6 | 94.00 | −1.04 | 2.20 | 95.01 | −0.56 | 3.32 | 11.8 | 1.3 ± 0 | 2.8 ± 0 | 19.9 ± 0.2 | 4.142 | 2.213 µm | −0.7 | thickening of the paint samples after two cycles | −0.4±0.2 |  |
| CN1CCCC1=O [NMP, N-methyl pyrrolidone, reference compound] | 12 | 94.2 ± 0.4 | 101.0 ± 2.4 | 100.6 ± 1.7 | 107.6 ± 1.3 | 94.55 | −0.88 | 2.20 | 95.14 | −0.52 | 3.02 | 19.8 | 1.3 ± 0 | 3.6 ± 0 | 30.7 ± 0.6 | 3.372 | 2.090 µm | −1.4 |  |  | Solubility [8]: 54.0 g/100 g of Solvent |
| CCCCN1CCCCCC1=O [N—BuCPL, N-butyl caprolactam] |  |  |  |  |  |  |  |  |  |  |  |  |  |  |  |  |  |  |  | −1.3±0.3 | Solubility [8]: 10.0 g/100 g of Solvent |
